Measurements: EP4306108A1, “5-AMINOLEVULINIC ACID, OR AN ESTER THEREOF FOR USE IN TREATMENT OF CANCER BASED ON THE INHIBITION OF LACTATE DEHYDROGENASE” (Theodossiou, Theodossis, priority 2022, dated 2024)

How the values were obtained:
LN18 [1] = assay: Seahorse XFe96 metabolic assay (OCR/ECAR), in-situ injection of 5-ALA; assay type: cell-based, human; details: LN18 cells; 5-ALA 500 - 1000 µM injected in situ; Figure 1
Procedure: (§1) The cells used in the present examples were human glioblastoma multiforme (GBM) cell lines, purchased from the American Type Culture Collection (ATCC, Manassas, VA, USA). These cell lines were LN18 (ATCC®, CRL-2610™), U87 (ATCC®, HTB-14™), T98G (ATCC®, CRL-1690™) and M059K (ATCC®, CRL-2365™). All cells were grown in RPMI 1640 without phenol red, supplemented with 10% fetal bovine serum (FBS) and penicillin/streptomycin at 37 °C in a 5% CO2 and 95% humidified atmosphere.
(§2) In order to study the changes in cell metabolism in GBM cells following the in-situ addition of 5-ALA, the Seahorse XFe96 analyzer (Agilent Technologies) was employed. Briefly, 4×10^4 cells were seeded in a seahorse plate and incubated overnight in complete RPMI 1640 medium at 37 °C, and a 5% CO2 humidified atmosphere. One hour prior to the experiments, the cells had their media changed to unbuffered XF RPMI pH 7.4 medium supplemented with 10 mM glucose, 2 mM L-glutamine, and 2 mM sodium pyruvate and were incubated for one hour at 37 °C, 0% CO2 atmosphere. The basal oxygen consumption and media acidification rates (OCR and ECAR respectively) of the cell groups were measured in four cycles. After those four cycles injections of i) 5-ALA (500 - 1000 µM), ii) Oligomycin A (OLIGO) 1 µM, iii) Carbonyl cyanide 4-(trifluoromethoxy)phenylhydrazone (FCCP) 1 µM and iv) Antimycin A (ANTI A) and Rotenone (ROT) 2 µM each were sequentially performed for 3 measurement cycles each.

MO59K = assay: as above; assay type: cell-based, human; details: MO59K cells; 5-ALA 500 - 1000 µM injected in situ; Figure 1
Procedure: as §1, §2

T98G [2] = assay: as above; assay type: cell-based, human; details: T98G cells; 5-ALA 500 - 1000 µM injected in situ; Figure 1
Procedure: as §1, §2

U87 [3] = assay: as above; assay type: cell-based, human; details: U87 cells; 5-ALA 500 - 1000 µM injected in situ; Figure 1
Procedure: as §1, §2

LN18 [4] = assay: Seahorse XF Real-Time ATP Rate Assay; assay type: cell-based, human; details: LN18 cells; 1000µM of 5-ALA; change versus control
Procedure: as §1, §2
(§3) The ATP contributions of mitochondrial respiration and cell glycolysis in U87, T98G, M059K and LN18 human GBM cells in the presence or absence of 5-ALA, were deconvoluted quantified by use of the Seahorse XF Real-Time ATP Rate Assay Kit. In brief the same protocol as in Example 1 was followed without the injection of FCCP and with only three basal measurement cycles, while the corresponding final concentrations of OLIGO and ROT/ANTI A were this time 1.5 and 0.5 µM. The ATP rates were determined with use of the Agilent Seahorse XF Real-Time ATP Rate Assay Report Generator.
(§4) The wells in the bottom row of the seahorse plates were in all cases left devoid of cells and were used as blank values. These were automatically subtracted by the Seahorse analyser software.
(§5) The changes in ATP production from either respiration or glycolysis were evaluated upon addition of 1000µM of 5-ALA.

M059K = assay: Seahorse XF Real-Time ATP Rate Assay; assay type: cell-based, human; details: M059K cells; 1000µM of 5-ALA; change versus control
Procedure: as §1, §2, §3, §4, §5

T98G [5] = assay: Seahorse XF Real-Time ATP Rate Assay; assay type: cell-based, human; details: T98G cells; 1000µM of 5-ALA; change versus control
Procedure: as §1, §2, §3, §4, §5

U87 [6] = assay: Seahorse XF Real-Time ATP Rate Assay; assay type: cell-based, human; details: U87 cells, 1000µM of 5-ALA, change versus control
Procedure: as §1, §2, §3, §4, §5

[7] = test system: LDH present in cell lysates, Ln18; assay: Spectrophotometric LDH kinetics (NADH absorbance at 340 nm), cell lysates; assay type: biochemical, human; details: 0.75 mM 5-ALA, no inhibitor: -1.48
Procedure: as §1
(§6) A. enzyme solutions. 0.5 mL of an aqueous LDH solution was mixed with 0.5 mL reaction buffer to start the LDH reduction of pyruvate. The final LDH concentration was always 5 µM.

[8] = test system: LDH present in cell lysates, U87; assay: as above; assay type: biochemical, human; details: 0.75 mM 5-ALA, no inhibitor: -1.43
Procedure: as §1, §6

[9] = test system: LDH present in cell lysates, M059K; assay: as above; assay type: biochemical, human; details: 0.75 mM 5-ALA, no inhibitor: -1.47
Procedure: as §1
as §6, with “µM. […] The final concentration of 5-ALA in the total volume of the reaction mix (1 mL) was 5 mM for 5-ALA. In the enzymatic assays LDH refers to the LDH-A isoform.” for “µM.”
(§7) In the second phase of the experiments, the enzymatic activity of LDH present in cell lysates was investigated.
(§8) Cell lysates were obtained from LN18, T98G, U87 and M059K GBM cells. In brief, cells from confluent T175 flasks were harvested with the use of TrypLE™ Express Enzyme (Gibco, REF# 12604021) and resuspended in ddH2O with Triton™ X-100 (0,25%). The cell lysate measurements were performed according to the enzymatic solution measurents, however in this case, cell lysates equivalent to […] were each time added to the H2O half of the reaction mix. […]

[10] = test system: LDH present in cell lysates, T98G; assay: as above; assay type: biochemical, human; details: 0.75 mM 5-ALA, no inhibitor: -1.20
Procedure: as §1
as §6, with “µM. […] The final concentration of 5-ALA in the total volume of the reaction mix (1 mL) was 5 mM for 5-ALA. In the enzymatic assays LDH refers to the LDH-A isoform.” for “µM.”
as §7, §8

LN18 [11] = assay: MTT cell viability assay; assay type: cell-based, human; details: LN18 cells
Procedure: as §1
(§9) The cells were incubated with 5, 10 and 20 mM 5-ALA for three days and each day the effect of 5-ALA on their viability was assessed by standard MTT assays at 24, 48 and 72h following incubation. The results are shown in Figure 5 (Error bars represent one SD).

T98G [12] = assay: MTT cell viability assay; assay type: cell-based, human; details: T98G cells; 10mM 5-ALA; after 72h incubation
Procedure: as §1, §9

U87 [13] = assay: MTT cell viability assay; assay type: cell-based, human; details: U87 cells
Procedure: as §1, §9

LDH-A isoform = LDH-A isoform (Homo sapiens, UniProt P00338); assay: Spectrophotometric LDH kinetics (NADH absorbance at 340 nm), enzyme solution
[14] = 10mM 5-ALA, all time points (24, 48 and 72h)
[15] = 20 mM 5-ALA, compared with the 90-98% reduction at 10mM

NCC(=O)CCC(=O)O [5-ALA, 5-Aminolevulinic acid]
glycolytic activity (LN18 [1]): drop in the glycolytic activity of those cell lines which was dose dependent
glycolytic activity (MO59K): drop in the glycolytic activity of those cell lines which was dose dependent
glycolytic activity (T98G [2]): drop in the glycolytic activity of those cell lines which was dose dependent
glycolytic activity (U87 [3]): drop in the glycolytic activity of those cell lines which was dose dependent
reduction in glycolytic ATP production (LN18 [4]): ~-140 pmol/min
reduction in glycolytic ATP production (M059K): ~ -250 pmole/min
reduction in glycolytic ATP production (T98G [5]): ~-200 pmol/min
reduction in glycolytic ATP production (U87 [6]): ~-200 pmol/min
increase in mitochondrial respiration-derived ATP (U87 [6]; marginally significant): ~ 100 pmole/min
initial slope of NADH absorbance curve (LDH Vmax for the cell lysate volume studied) [7]: -0.47
initial slope of NADH absorbance curve (LDH Vmax for the cell lysate volume studied) [8]: -0.32
initial slope of NADH absorbance curve (LDH Vmax for the cell lysate volume studied) [9]: -0.53
initial slope of NADH absorbance curve (LDH Vmax for the cell lysate volume studied) [10]: -0.57
reduction in cell viability (LN18 [11]; [14]): 90-98%
reduction in cell viability (LN18 [11]; [15]): in general, maintained
lethality level reached (cell viability) (T98G [12]): LD40
reduction in cell viability (U87 [13]; [14]): 90-98%
reduction in cell viability (U87 [13]; [15]): in general, maintained
initial slope of NADH absorbance curve (corresponds to Vmax of the enzyme) (LDH-A isoform; Enzyme solution, 5 mM 5-ALA, first 5 data points (8 sec), pH 6.5, no inhibitor: -2.28): -0.51
activity at 5000 µM (LDH-A isoform; read-out: enzyme function as % of its Vmax): ~22%
